Like-named read-outs stand apart in the source and are kept apart here.
Key:
Assay in all cases: biochemical
Parameters in all cases: KINOMEscan scanMAX competition binding, DNA-tagged kinases, qPCR read-out, percent control at 300 nM
PIK3CA(H1047L) = PIK3CA(H1047L) (Homo sapiens, UniProt P42336, H1047L)
MRCKA = target: T1, MRCKA (Homo sapiens, UniProt Q5VT25)
T1 construct: gene CDC42BPA

MAST1 = MAST1 (Homo sapiens, UniProt Q9Y2H9)
BTK = BTK (Homo sapiens, UniProt Q06187)
ACVR2B = ACVR2B (Homo sapiens, UniProt Q13705)
GCN2(Kin.Dom.2,S808G) = target: T2, GCN2(Kin.Dom.2,S808G) (Homo sapiens, UniProt Q9P2K8, S808G)
T2 construct: gene EIF2AK4; Kin.Dom.2

PIK3C2B = PIK3C2B (Homo sapiens, UniProt O00750)
PAK4 = PAK4 (Homo sapiens, UniProt O96013)
EGFR(T790M) = EGFR(T790M) (Homo sapiens, UniProt P00533, T790M)
MAP4K5 = MAP4K5 (Homo sapiens, UniProt Q9Y4K4)
ASK2 = target: T3, ASK2 (Homo sapiens, UniProt O95382)
T3 construct: gene MAP3K6

CSNK1D = CSNK1D (Homo sapiens, UniProt P48730)
CDK8 = CDK8 (Homo sapiens, UniProt P49336)
DCAMKL2 = target: T4, DCAMKL2 (Homo sapiens, UniProt Q8N568)
T4 construct: gene DCLK2

PFTK1 = target: T5, PFTK1 (Homo sapiens, UniProt O94921)
T5 construct: gene CDK14

HUNK = target: T6, HUNK (Homo sapiens, UniProt P57058)
T6 sequence (P57058 1-714): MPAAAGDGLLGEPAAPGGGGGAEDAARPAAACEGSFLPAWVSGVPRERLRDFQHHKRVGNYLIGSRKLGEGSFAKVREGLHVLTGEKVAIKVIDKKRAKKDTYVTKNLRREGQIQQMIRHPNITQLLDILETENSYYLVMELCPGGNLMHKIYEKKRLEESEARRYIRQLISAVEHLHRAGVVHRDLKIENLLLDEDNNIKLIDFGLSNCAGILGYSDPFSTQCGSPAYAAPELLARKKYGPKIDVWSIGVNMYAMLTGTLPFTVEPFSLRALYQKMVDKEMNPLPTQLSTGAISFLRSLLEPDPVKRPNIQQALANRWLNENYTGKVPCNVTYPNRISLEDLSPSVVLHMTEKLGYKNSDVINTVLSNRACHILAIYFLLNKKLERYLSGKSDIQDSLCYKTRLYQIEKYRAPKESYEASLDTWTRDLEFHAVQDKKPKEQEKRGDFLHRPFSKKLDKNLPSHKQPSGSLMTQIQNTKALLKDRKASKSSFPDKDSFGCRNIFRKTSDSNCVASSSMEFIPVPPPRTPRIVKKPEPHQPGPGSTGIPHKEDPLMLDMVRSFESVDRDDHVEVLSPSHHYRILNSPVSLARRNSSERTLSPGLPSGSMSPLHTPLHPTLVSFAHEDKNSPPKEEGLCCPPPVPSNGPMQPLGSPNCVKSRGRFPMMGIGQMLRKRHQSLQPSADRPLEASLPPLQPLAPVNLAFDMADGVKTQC

PDPK1 = PDPK1 (Homo sapiens, UniProt O15530)
NEK1 = NEK1 (Homo sapiens, UniProt Q96PY6)
[1] = read-out: Percent control / Acalabrutinib
[2] = read-out: Percent control / Ibrutinib
[3] = read-out: Percent control / Tirabrutinib
[4] = read-out: Percent control / Zanubrutinib

Sequence of NEK1 (Q96PY6 whole entry): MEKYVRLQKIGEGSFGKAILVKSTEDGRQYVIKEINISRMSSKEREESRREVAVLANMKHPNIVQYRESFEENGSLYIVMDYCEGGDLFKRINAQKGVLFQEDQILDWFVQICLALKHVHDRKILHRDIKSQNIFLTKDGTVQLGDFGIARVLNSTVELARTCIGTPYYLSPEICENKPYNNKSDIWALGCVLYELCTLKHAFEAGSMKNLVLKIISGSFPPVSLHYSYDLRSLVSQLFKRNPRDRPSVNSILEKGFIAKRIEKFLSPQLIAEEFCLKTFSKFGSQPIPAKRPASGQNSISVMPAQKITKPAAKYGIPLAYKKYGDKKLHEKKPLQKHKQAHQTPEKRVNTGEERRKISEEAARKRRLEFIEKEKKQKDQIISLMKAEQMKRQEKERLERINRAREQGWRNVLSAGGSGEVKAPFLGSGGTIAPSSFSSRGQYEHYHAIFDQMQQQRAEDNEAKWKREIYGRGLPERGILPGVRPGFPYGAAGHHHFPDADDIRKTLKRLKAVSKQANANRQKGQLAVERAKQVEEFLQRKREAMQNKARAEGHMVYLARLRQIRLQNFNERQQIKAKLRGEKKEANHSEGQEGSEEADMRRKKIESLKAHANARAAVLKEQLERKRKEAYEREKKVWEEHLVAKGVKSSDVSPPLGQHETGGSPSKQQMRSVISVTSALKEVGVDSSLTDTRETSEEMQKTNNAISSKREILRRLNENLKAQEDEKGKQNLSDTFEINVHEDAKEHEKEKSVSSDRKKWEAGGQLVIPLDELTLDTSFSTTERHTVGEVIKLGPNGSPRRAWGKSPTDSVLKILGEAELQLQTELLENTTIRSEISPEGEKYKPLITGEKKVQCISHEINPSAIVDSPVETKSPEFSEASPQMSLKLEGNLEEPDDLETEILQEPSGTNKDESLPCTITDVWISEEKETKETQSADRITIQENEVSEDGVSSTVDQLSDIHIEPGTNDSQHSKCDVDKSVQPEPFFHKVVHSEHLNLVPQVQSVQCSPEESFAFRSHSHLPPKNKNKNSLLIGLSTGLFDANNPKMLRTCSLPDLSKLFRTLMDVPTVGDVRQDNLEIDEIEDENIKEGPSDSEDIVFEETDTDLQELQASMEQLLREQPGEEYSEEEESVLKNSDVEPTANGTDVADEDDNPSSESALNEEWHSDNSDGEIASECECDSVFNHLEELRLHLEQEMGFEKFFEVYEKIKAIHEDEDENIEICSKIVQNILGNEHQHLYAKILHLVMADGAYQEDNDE
T2 sequence (Q9P2K8 whole entry S808G): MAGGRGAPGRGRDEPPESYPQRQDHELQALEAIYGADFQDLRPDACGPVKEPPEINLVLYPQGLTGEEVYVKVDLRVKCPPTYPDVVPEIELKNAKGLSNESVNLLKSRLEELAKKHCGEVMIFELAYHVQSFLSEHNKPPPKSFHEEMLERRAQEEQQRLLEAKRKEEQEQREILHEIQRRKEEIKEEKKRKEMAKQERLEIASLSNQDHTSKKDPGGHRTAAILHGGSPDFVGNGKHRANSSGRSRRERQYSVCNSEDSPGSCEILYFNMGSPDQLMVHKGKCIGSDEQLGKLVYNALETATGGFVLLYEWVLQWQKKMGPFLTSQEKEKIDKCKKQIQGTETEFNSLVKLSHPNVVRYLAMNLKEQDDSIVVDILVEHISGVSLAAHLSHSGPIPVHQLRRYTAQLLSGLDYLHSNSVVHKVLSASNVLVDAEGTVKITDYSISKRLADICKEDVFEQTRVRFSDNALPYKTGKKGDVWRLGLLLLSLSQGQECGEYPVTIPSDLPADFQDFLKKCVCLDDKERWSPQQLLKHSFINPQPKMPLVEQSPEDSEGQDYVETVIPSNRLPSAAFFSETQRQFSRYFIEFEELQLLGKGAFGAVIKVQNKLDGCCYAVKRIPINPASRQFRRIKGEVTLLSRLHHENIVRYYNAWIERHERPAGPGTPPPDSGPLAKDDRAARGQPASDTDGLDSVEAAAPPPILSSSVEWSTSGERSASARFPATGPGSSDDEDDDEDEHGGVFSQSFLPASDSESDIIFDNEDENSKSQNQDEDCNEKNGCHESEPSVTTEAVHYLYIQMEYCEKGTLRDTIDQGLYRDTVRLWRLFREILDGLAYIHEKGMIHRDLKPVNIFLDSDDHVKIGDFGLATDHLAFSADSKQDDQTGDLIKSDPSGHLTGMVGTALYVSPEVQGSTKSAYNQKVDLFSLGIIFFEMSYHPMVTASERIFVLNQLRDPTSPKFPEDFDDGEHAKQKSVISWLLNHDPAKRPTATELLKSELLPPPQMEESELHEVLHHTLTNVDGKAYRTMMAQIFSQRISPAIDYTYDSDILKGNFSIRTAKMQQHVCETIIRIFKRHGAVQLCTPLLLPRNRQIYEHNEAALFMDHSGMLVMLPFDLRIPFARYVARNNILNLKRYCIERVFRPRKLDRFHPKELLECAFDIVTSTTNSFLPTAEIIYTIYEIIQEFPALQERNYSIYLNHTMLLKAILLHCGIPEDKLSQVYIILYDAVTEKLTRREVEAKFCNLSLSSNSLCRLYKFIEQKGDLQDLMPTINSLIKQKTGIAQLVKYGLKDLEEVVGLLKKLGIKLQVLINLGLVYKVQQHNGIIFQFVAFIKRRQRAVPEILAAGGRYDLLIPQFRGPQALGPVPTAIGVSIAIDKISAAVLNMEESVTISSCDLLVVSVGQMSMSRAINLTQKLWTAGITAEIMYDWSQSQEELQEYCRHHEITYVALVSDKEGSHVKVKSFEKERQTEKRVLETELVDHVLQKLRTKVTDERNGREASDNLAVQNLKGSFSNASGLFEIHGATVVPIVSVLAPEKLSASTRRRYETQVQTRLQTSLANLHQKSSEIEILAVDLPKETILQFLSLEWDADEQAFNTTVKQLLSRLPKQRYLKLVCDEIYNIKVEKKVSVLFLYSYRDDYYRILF
Sequence of MAST1 (Q9Y2H9 whole entry): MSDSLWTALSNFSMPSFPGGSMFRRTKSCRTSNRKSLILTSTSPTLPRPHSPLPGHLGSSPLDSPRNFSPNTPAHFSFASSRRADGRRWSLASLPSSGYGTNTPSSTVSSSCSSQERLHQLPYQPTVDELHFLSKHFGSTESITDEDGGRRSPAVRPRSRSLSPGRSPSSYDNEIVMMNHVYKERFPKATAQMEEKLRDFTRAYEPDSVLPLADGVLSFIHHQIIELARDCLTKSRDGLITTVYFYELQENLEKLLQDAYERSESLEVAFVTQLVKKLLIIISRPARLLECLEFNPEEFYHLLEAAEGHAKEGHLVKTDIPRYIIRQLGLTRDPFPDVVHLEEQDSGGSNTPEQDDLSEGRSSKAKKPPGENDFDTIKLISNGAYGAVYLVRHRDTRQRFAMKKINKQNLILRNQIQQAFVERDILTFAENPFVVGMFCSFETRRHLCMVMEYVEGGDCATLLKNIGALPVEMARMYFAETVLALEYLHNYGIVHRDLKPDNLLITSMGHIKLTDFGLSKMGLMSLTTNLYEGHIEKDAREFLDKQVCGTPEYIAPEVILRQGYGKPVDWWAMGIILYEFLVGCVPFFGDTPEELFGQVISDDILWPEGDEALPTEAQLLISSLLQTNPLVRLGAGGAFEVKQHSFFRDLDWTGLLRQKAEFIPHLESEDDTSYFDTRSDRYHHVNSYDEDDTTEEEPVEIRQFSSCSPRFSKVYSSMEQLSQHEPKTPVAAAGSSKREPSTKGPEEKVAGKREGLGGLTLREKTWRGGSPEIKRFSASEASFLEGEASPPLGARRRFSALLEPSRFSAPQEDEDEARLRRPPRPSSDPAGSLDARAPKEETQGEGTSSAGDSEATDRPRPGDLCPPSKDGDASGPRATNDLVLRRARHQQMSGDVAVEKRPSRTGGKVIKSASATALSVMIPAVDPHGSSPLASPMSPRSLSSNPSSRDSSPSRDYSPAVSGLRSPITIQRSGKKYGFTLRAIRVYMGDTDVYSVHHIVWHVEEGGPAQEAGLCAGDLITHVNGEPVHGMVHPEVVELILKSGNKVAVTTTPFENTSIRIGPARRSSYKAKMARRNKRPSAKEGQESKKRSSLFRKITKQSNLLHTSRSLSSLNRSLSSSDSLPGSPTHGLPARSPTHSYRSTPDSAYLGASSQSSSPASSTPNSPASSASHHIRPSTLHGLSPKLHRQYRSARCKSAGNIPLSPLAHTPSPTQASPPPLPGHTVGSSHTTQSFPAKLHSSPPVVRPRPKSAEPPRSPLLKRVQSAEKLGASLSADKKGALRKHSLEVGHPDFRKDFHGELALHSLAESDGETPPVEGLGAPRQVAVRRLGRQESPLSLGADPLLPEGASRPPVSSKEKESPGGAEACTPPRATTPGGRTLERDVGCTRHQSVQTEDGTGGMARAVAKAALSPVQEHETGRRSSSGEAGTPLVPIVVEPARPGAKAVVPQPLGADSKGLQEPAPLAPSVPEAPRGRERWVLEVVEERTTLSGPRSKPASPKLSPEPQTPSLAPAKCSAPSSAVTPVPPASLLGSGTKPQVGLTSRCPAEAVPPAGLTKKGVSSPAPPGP
Sequence of CSNK1D (P48730 whole entry): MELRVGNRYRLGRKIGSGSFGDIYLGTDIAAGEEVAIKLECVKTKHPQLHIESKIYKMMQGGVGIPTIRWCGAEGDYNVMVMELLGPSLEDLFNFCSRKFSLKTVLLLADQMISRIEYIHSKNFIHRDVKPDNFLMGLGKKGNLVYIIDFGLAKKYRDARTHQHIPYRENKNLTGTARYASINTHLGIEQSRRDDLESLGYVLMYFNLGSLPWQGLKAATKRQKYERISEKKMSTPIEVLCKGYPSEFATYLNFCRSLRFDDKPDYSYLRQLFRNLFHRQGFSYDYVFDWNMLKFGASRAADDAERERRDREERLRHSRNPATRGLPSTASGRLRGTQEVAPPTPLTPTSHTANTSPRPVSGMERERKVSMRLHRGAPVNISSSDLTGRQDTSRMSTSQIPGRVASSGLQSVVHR

SMILES: CC#CC(=O)N1CCC[C@H]1c1nc(-c2ccc(C(=O)Nc3ccccn3)cc2)c2c(N)nccn12 [Acalabrutinib]
- remaining binding at 0.3 µM (PIK3CA(H1047L); [1]): 90%
- remaining binding at 0.3 µM (MRCKA; [1]): 96%
- remaining binding at 0.3 µM (MAST1; [1]): 87%
- remaining binding at 0.3 µM (BTK; [1]): 0.3%
- remaining binding at 0.3 µM (ACVR2B; [1]): 85%
- remaining binding at 0.3 µM (GCN2(Kin.Dom.2,S808G); [1]): 91%
- remaining binding at 0.3 µM (PIK3C2B; [1]): 93%
- remaining binding at 0.3 µM (PAK4; [1]): 93%
- remaining binding at 0.3 µM (EGFR(T790M); [1]): 93%
- remaining binding at 0.3 µM (MAP4K5; [1]): 90%
- remaining binding at 0.3 µM (ASK2; [1]): 87%
- remaining binding at 0.3 µM (CSNK1D; [1]): 85%
- remaining binding at 0.3 µM (CDK8; [1]): 93%
- remaining binding at 0.3 µM (DCAMKL2; [1]): 90%
- remaining binding at 0.3 µM (PFTK1; [1]): 89%

SMILES: C=CC(=O)N1CCC[C@@H](n2nc(-c3ccc(Oc4ccccc4)cc3)c3c(N)ncnc32)C1 [Ibrutinib]
- remaining binding at 0.3 µM (HUNK; [2]): 9%
- remaining binding at 0.3 µM (PDPK1; [2]): 99%
- remaining binding at 0.3 µM (NEK1; [2]): 96%

SMILES: CC#CC(=O)N1CC[C@@H](n2c(=O)n(-c3ccc(Oc4ccccc4)cc3)c3c(N)ncnc32)C1 [Tirabrutinib]
- remaining binding at 0.3 µM (HUNK; [3]): 11%
- remaining binding at 0.3 µM (BTK; [3]): 3%
- remaining binding at 0.3 µM (EGFR(T790M); [3]): 75%

SMILES: C=CC(=O)N1CCC([C@@H]2CCNc3c(C(N)=O)c(-c4ccc(Oc5ccccc5)cc4)nn32)CC1 [Zanubrutinib]
- remaining binding at 0.3 µM (PIK3CA(H1047L); [4]): 100%
- remaining binding at 0.3 µM (MRCKA; [4]): 100%
- remaining binding at 0.3 µM (MAST1; [4]): 100%
- remaining binding at 0.3 µM (ACVR2B; [4]): 91%
- remaining binding at 0.3 µM (GCN2(Kin.Dom.2,S808G); [4]): 100%
- remaining binding at 0.3 µM (PIK3C2B; [4]): 62%
- remaining binding at 0.3 µM (PAK4; [4]): 85%
- remaining binding at 0.3 µM (MAP4K5; [4]): 98%
- remaining binding at 0.3 µM (ASK2; [4]): 55%
- remaining binding at 0.3 µM (PDPK1; [4]): 100%
- remaining binding at 0.3 µM (CSNK1D; [4]): 100%
- remaining binding at 0.3 µM (CDK8; [4]): 100%
- remaining binding at 0.3 µM (DCAMKL2; [4]): 91%
- remaining binding at 0.3 µM (PFTK1; [4]): 92%
- remaining binding at 0.3 µM (NEK1; [4]): 54%

Source: paper PMC10004634 (PLOS ONE, 2023)
